Common to all, as to format: biochemical
One assay addresses CDK4/cyclinD1 (Homo sapiens, UniProt P11802). As to the kind of experiment: In vitro filtration assay for CDK4 inhibitory activity (pRb phosphorylation, [33P]-ATP). The note with it: GST-pRb substrate, 1 μM unlabeled ATP, 25° C. 45 minutes, read-out: cdk4 filter (pIC50) (converted). The method, then: Compounds of the present invention were tested in an in vitro filtration assay assessing CDK4 activity by means of its pRb-phosphorylation activity using [^33P]-ATP as phosphor donor. The radioactive phosphorylated pRb is then captured on filtermats and the incorporated [^33P] quantitated using a phosphorage storage screen.
The CDK4 kinase reaction is performed at 25° C. for 45 minutes in a 96-well microtiterplate. The 25 μl reaction volume contains 50 mM Hepes pH 7.5, 10 mM NaF, 10 mM MgCl2, 1 mM Na3VO4, 1 μM unlabeled ATP, 1 mM DTT, 0.5 μCi AT^33P, 0.76 μg/well GST-pRb, 50 ng CDK4/cyclinD1/well and 0.2% compound in 100% DMSO.
(§1) The reaction is stopped by adding 5 μl of a 3% phosphoric acid solution. 10 μl of the reaction mixture is then spotted onto a Filtermat P30 filter (Wallac) and washed 3 times for 5 min. in 75 mM phosphoric acid and 1 time for 5 min. in methanol prior to drying and quantification on the Typhoon (Amersham) using a phosphorage storage screen.
(§2) For each experiment, controls (containing enzyme (complex) and DMSO without compound), a blank incubation (containing DMSO but no enzyme (complex) or compound) and samples (containing enzyme (complex) and compound dissolved in DMSO) were run in parallel. All compounds tested were dissolved and eventually further diluted in DMSO. […] In each test, the blank value was subtracted from both the control and the sample values. The control sample represented maximal enzyme activity. For each sample, the amount of cpm was expressed as a percentage of the mean cpm value of the controls. When appropriate, IC50-values (concentration of the drug, needed to reduce the enzyme activity to 50% of the control) were computed using linear interpolation between the experimental points just above and below the 50% level. Herein the effects of test compounds are expressed as pIC50 (the negative log value of the IC50-value).

The next assay deals with T1, AURORA A (Homo sapiens, UniProt O14965).
T1 sequence (O14965 1-403): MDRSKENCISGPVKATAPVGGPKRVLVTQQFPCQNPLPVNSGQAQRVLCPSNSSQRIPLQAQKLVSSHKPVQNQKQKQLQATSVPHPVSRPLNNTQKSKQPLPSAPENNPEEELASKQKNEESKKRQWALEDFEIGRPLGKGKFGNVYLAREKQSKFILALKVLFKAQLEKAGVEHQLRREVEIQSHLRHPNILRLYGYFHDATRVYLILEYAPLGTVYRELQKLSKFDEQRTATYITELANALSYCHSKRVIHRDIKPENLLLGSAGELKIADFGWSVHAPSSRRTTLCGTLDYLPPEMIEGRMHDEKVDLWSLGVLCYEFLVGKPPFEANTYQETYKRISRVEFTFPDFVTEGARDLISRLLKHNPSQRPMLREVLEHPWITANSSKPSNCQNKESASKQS
The assay is described as follows: In vitro filtration assay for AURORA A inhibitory activity. The note with it: Kemptide substrate, 1 μM unlabeled ATP, 25° C. 40 minutes, read-out: Aurora A see C.2 (pIC50) (converted). The method, then: Compounds of the present invention were tested in an in vitro filtration assay assessing AURORA A activity by means of its substrate-phosphorylation activity using [^33P]-ATP as phosphor donor. The radioactive phosphorylated substrate is then captured on filtermats and the incorporated [^33P] quantitated using a phosphorage storage screen.
The Aurora-A kinase reaction is performed at 25° C. for 40 minutes in a 96-well microtiterplate. The 25 μl reaction volume contains 12 mM MOPS pH 7, 0.4 mM EDTA, 0.002% Brij35, 1% glycerol, 0.02% beta-mercapto-ethanol, 0.2 mg/ml BSA, 1 μM unlabeled ATP, […] [^33P]-ATP, 200 μM Kemptide, 3 ng Aurora A/well and 0.2% compound in 100% DMSO.
as §1, §2

For the next assay, the target named is AURORA B (Homo sapiens, UniProt Q96GD4). The assay is described as follows: In vitro filtration assay for AURORA B inhibitory activity. The note with it: peptide (C(LRRWSLG)×4), 1 μM unlabeled ATP, 25° C. 40 minutes, read-out: Aurora B see C.3 (pIC50) (converted). The method, then: Compounds of the present invention were tested in an in vitro filtration assay assessing AURORA B activity by means of its substrate-phosphorylation activity using [^33P]-ATP as phosphor donor. The radioactive phosphorylated substrate is then captured on filtermats and the incorporated [^33P] quantitated using a phosphorage storage screen.
The Aurora-B kinase reaction is performed at 25° C. for 40 minutes in a 96-well microtiterplate. The 25 μl reaction volume contains 60 mM Hepes pH 7.5, 3 mM MgCl2, 3 mM MnCl2, 3 μM Na3VO4, 50 μg/ml PEG20000, 1 μM unlabeled ATP, 1 mM DTT, 0.2 μCi AT^33P, 0.25 μg/well peptide (C(LRRWSLG)×4),100 ng Aurora-B/well and 0.2% compound in 100% DMSO. The reaction is stopped by adding 5 μl of a 3% phosphoric acid solution. 10 μl of the reaction mixture is then spotted onto a Filtermat P30 filter (Wallac) and washed 3 times for 5 min. in 75 mM phosphoric acid and 1 time for 5 min. in methanol prior to drying and quantification on the Typhoon (Amersham) using a phosphorage storage screen.
as §2

The structures appear in SMILES notation.

The values below come from patent US7947695B2, “5-membered annelated heterocyclic pyrimidines as kinase inhibitors” (Janssen Pharmaceutica NV, priority 2005, dated 2011).

Chain of CDK4/cyclinD1 (P11802 whole entry): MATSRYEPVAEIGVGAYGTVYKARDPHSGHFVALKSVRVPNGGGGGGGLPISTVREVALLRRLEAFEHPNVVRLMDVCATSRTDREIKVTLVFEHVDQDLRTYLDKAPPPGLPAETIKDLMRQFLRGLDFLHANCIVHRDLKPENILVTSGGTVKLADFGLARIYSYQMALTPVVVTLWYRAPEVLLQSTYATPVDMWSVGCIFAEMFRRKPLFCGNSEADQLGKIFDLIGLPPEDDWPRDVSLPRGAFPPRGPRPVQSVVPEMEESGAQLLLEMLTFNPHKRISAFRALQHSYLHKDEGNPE
Chain of CDK4/cyclinD1 (P24385 whole entry partner): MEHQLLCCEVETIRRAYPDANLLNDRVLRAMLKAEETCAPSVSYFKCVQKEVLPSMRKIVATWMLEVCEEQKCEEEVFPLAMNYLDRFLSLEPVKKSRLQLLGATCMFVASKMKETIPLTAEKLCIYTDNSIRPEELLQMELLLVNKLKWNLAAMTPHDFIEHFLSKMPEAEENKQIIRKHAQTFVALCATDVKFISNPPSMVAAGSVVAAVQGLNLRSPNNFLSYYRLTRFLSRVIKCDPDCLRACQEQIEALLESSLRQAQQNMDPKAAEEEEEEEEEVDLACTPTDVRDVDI
Chain of AURORA B (Q96GD4 whole entry): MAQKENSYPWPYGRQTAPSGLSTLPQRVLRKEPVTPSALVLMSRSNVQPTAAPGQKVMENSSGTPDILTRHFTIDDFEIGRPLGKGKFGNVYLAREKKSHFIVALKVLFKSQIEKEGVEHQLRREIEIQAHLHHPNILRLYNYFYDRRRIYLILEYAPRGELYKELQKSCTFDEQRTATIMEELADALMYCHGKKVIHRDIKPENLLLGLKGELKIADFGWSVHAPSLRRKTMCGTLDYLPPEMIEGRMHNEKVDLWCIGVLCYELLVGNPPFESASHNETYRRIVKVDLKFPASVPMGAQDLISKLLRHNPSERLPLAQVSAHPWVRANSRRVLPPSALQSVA

In the case of `CN1CCN(c2ccc(Nc3ncc4cnn([C@H]5C[C@@H]6CC[C@H]5C6)c4n3)cc2)CC1` (single isomer, unassigned) [Co. No. 23], the IC50 was 5.01 nM at CDK4/cyclinD1, 100 nM at AURORA A and 158 nM at AURORA B.
On to `CN1CCN(Cc2ccc(Nc3ncc4cnn(C5CCCCC5)c4n3)cc2)CC1` [Co. No. 2], for which the figures for the IC50 on CDK4/cyclinD1, at AURORA A and at AURORA B were 3.16 nM, 501 nM and over 10000 nM, respectively.
The corresponding values for `CN1CCN(C(=O)c2ccc(Nc3ncc4cnn(C5CCCCC5)c4n3)cc2)CC1` [Co. No. 3] are 6.31 nM, 501 nM and over 10000 nM.
The corresponding values for `c1cc(Nc2ncc3cnn(C4CCCCC4)c3n2)ccc1CNCCN1CCOCC1` [Co. No. 4] are 2.51 nM, 1000 nM and over 1580 nM.
For `OCCN1CCN(c2ccc(Nc3ncc4cnn(C5CCCCC5)c4n3)cc2)CC1` [Co. No. 15], the IC50 on CDK4/cyclinD1 is 10 nM; on AURORA A, 631 nM; at AURORA B, over 10000 nM.
Take `OCCN1CCN(Cc2ccc(Nc3ncc4cnn(C5CCCCC5)c4n3)cc2)CC1` [Co. No. 37]: the IC50 on CDK4/cyclinD1 was 7.94 nM; on AURORA A it was 200 nM; at AURORA B, 398 nM.
For `CN1CCC(NCc2ccc(Nc3ncc4cnn(C5CCCCC5)c4n3)cc2)CC1` [Co. No. 60], the IC50 was 7.94 nM on CDK4/cyclinD1, 1580 nM at AURORA A and over 10000 nM at AURORA B.
In the same order, the values of `CN1CCN(c2ccc(Nc3ncc4cnn([C@H]5C[C@@H]6CC[C@H]5C6)c4n3)cc2)CC1` [compound 16] are 31.6 nM, 398 nM and over 10000 nM.
The corresponding values for `c1cc(N2CCOCC2)ncc1Nc1ncc2cnn(C3CCCCC3)c2n1` [compound 17] are 20 nM, 794 nM and over 10000 nM.
On to `CN1CCN(c2ccc(Nc3ncc4cnn(C5CCCCC5)c4n3)cc2Cl)CC1` [compound 18], for which the IC50 on CDK4/cyclinD1 was 251 nM; at AURORA A, 158 nM; on AURORA B, over 10000 nM.
With `CC(=O)N1CCN(c2ccc(Nc3ncc4cnn(C5CCCCC5)c4n3)cc2)CC1` [compound 19], the IC50 on CDK4/cyclinD1 was 5010 nM; on AURORA A, over 10000 nM; on AURORA B, over 10000 nM.
As for `OC1CCN(c2ccc(Nc3ncc4cnn(C5CCCCC5)c4n3)cc2)CC1` [compound 20], the IC50 is 12.6 nM at CDK4/cyclinD1, 501 nM at AURORA A and over 10000 nM on AURORA B.
`NS(=O)(=O)N1CCN(c2ccc(Nc3ncc4cnn(C5CCCCC5)c4n3)cc2)CC1` [compound 21]: the figures for the IC50 on CDK4/cyclinD1, at AURORA A and at AURORA B were 39.8 nM, 200 nM and 3160 nM, respectively.
The corresponding values for `c1ccc(N2CCN(c3ccc(Nc4ncc5cnn(C6CCCCC6)c5n4)cc3)CC2)nc1` [compound 22] are 501 nM, 39.8 nM and over 10000 nM.
In the case of `CC(C)(O)CN1CCN(c2ccc(Nc3ncc4cnn(C5CCCCC5)c4n3)cc2)CC1` [compound 24], the IC50 was 126 nM on CDK4/cyclinD1, 251 nM at AURORA A and 3160 nM on AURORA B.
With `CC(C)(C)OC(=O)N1CCN(c2ccc(Nc3ncc4cnn(C5CCCCC5)c4n3)cc2)CC1` [compound 25], the IC50 on CDK4/cyclinD1 was 1000 nM; on AURORA A, 100 nM; at AURORA B it was 3160 nM.
The corresponding values for `c1cc(N2CCNCC2)ccc1Nc1ncc2cnn(C3CCCCC3)c2n1` [compound 26] are 15.8 nM, 251 nM and 1260 nM.
For `CN1CCN(c2ccc(Nc3ncc4cnn(C5CCOCC5)c4n3)cc2)CC1` [compound 27], the IC50 is 200 nM at CDK4/cyclinD1, 501 nM on AURORA A and over 10000 nM at AURORA B.
In the same order, the values of `c1cc(Nc2ncc3cnn(C4CCCCC4)c3n2)ncc1N1CCOCC1` [compound 28] are 1000 nM, 2510 nM and over 10000 nM.
With `CC(C)(C)OC(=O)N1CCN(c2ccc(Nc3ncc4cnn(C5CCCCC5)c4n3)nc2)CC1` [compound 29], the IC50 at CDK4/cyclinD1 was 6310 nM; at AURORA A, over 10000 nM; at AURORA B, over 10000 nM.
Regarding `c1cc(Nc2ncc3cnn(C4CCCCC4)c3n2)ncc1N1CCNCC1` [compound 30], the IC50 is 50.1 nM at CDK4/cyclinD1, over 10000 nM on AURORA A and over 10000 nM at AURORA B.
With `CC(C)(O)C(=O)N1CCN(c2ccc(Nc3ncc4cnn(C5CCCCC5)c4n3)cc2)CC1` [compound 31], the IC50 at CDK4/cyclinD1 was 31.6 nM.
Take `c1cc(Nc2ncc3cnn(C4CCCCC4)c3n2)ccc1CN1CCOCC1` [compound 33]: the IC50 at CDK4/cyclinD1 is 631 nM; at AURORA A, 15.8 nM; at AURORA B, 7940 nM.
As for `NS(=O)(=O)N1CCN(Cc2ccc(Nc3ncc4cnn(C5CCCCC5)c4n3)cc2)CC1` [compound 34], the IC50 at CDK4/cyclinD1 was 63.1 nM; at AURORA A, 158 nM; at AURORA B, over 10000 nM.
The corresponding values for `c1ccc(N2CCN(Cc3ccc(Nc4ncc5cnn(C6CCCCC6)c5n4)cc3)CC2)nc1` [compound 35] are 100 nM, 251 nM and over 10000 nM.
For `CN1CCN(Cc2ccc(Nc3ncc4cnn([C@H]5C[C@@H]6CC[C@H]5C6)c4n3)cc2)CC1` [compound 36], the IC50 on CDK4/cyclinD1 is 100 nM; at AURORA A, 251 nM; at AURORA B, over 10000 nM.
With `CC(C)(O)CN1CCN(Cc2ccc(Nc3ncc4cnn(C5CCCCC5)c4n3)cc2)CC1` [compound 38], the results for the IC50 at CDK4/cyclinD1, on AURORA A and at AURORA B were 12.6 nM, 1000 nM and 2000 nM, respectively.
For `COCCCC(=O)N1CCN(Cc2ccc(Nc3ncc4cnn(C5CCCCC5)c4n3)cc2)CC1` [compound 45], the IC50 at CDK4/cyclinD1 was 398 nM; on AURORA A, 200 nM.
On to `CN1CCN(Cc2ccc(Nc3ncc4cnn(C5CCOCC5)c4n3)cc2)CC1` [compound 49], for which the IC50 on CDK4/cyclinD1 and at AURORA A was 1260 nM throughout.
With `CC(C)(C)OC(=O)N(c1ccc(CNC2CCOCC2)cc1)c1ncc2cnn(C3CCCCC3)c2n1` [compound 66], the IC50 at CDK4/cyclinD1 is 7940 nM; at AURORA B it was over 10000 nM.
Take `COCCCN1CCN(c2ccc(Nc3ncc4c(n3)N(C3CCCCC3)C(=O)C4)cc2)CC1` [compound 90]: the IC50 at CDK4/cyclinD1 is 316 nM; at AURORA A, 1580 nM.
As for `CC(C)(O)CN1CCC(NC(=O)c2ccc(Nc3ncc4cnn(C5CCCCC5)c4n3)cc2)CC1` [compound 98], the IC50 on CDK4/cyclinD1 is 398 nM; at AURORA A it was 316 nM.
